Assay results reported in patent US11851681B2, “Cell preparation method” (KYOTO PREFECTURAL PUBLIC UNIVERSITY CORPORATION, priority 2015, dated 2023).
Entries after “also recorded” stand apart in the source; their conditions may differ.

Assays:
Type in all cases: cell-based
[1] = tested on: human dermal fibroblasts; HDFs; assay: Real-time RT-PCR of Sox9 and Aggrican in cartilage induction medium, Example 8; settings: ALK5 inhibitor II 2 μM, Cyclic Pifithrin-α 5 μM, day 18, FIG. 8
Experimental: The concentrations of the compounds are as follows: • Cyclic Pifithrin-α: 5 μM • ALK5 inhibitor II: 2 μM.

[2] = tested on: human dermal fibroblasts; HDFs; assay: Bodipy staining in WA medium, four inhibitors, Example 48; settings: day 12, FIG. 52
[3] = tested on: Human Epidermal Keratinocyte; NHEK (AD); assay: Real-time RT-PCR of UCP1 and CIDEA, keratinocyte to brown adipocyte, Example 43; settings: K-adipocyte induction medium; ALK5 inhibitor II 4 μM or LY2157299 8 μM, Day 1 to Day 8; day 14; FIG. 47
Experimental: Normal human epidermal keratinocyte (Human Epidermal Keratinocyte; NHEK (AD)) were suspended in a serum-free liquid medium for normal human epidermal keratinocyte proliferation (HuMedia-KG2; manufactured by Kurabo).
The K-adipocyte induction medium is HuMedia-KG2 added with 1 nM T3, 1 μM Rosiglitazone, 0.5 mM 3-isobutyl-1-methylxanthine (IBMX), 0.5 μM dexamethasone, and 1 μg/mL Insulin.
Once every 2 days, the culture medium was exchanged with a fresh one, and culturing was performed from Day 1 to Day 8. Thereafter, from Day 9 to Day 14, the cells were cultured in a medium free of ALK5 inhibitor II or LY2157299. On day 14, the culture medium was removed by suction from each well, washed with PBS(−) and total RNA was extracted from the cells by using RNA easy Mini Kit manufactured by Qiagen. cDNA was synthesized from the RNA by using Rever Tra Ace qPCR RT Master Mix. This cDNA was admixed with Real-time PCR Master Mix, primers specific to UCP-1 gene, CIDEA gene or β actin gene and Taqman probe. qRT-PCR was performed using AB7300 Real-time PCR system. The mRNA level of UCP1 gene and CIDEA gene was quantified as a ratio to β-actin gene mRNA level, and calculated with the value of fibroblast cultured in the general medium as 1.

[4] = tested on: human dermal fibroblasts; HDFs; assay: Bodipy staining quantification in WA medium, four inhibitors, Example 49; settings: 16 μM compound and 1 μM Rosiglitazone, day 12, FIG. 53
[5] = tested on: Human normal skin-derived fibroblasts (HDFs); assay: Immunostaining of UCP1, four inhibitors, Example 40; settings: LY2157299 8 μM, SB431542 4 μM, D4476 4 μM, Day 1 to Day 8, day 14, FIG. 44
Experimental: Human normal skin-derived fibroblasts (HDFs) were suspended in a general medium (DMEM added with 10% FBS). […] The adipocyte induction medium is DMEM added with 1 nM T3, 1 μM Rosiglitazone, 0.5 mM 3-isobutyl-1-methylxanthine (IBMX), 0.5 μM dexamethasone, 1 μg/mL Insulin and 10% FBS. Once every 2 days, the culture medium was exchanged with a fresh one, and culturing was performed from Day 1 to Day 8. Thereafter, from Day 9 to Day 14, the cells were cultured in an adipocyte induction medium free of ALK5 inhibitor II, LY2157299, SB431542, D4476. On day 14, the culture medium was removed by suction from each well, and washed with PBS(−). After fixing with 4% para-formaldehyde, the well was washed with PBS (−), Permanent wave Buffer (0.2% Triton-X addition PBS) was added and the well was incubated for 15 min. After washing 3 times with PBS(−), Blocking One was added, and the mixture was incubated at room temperature for 60 min. Anti-UCP-1 antibody (RD MAB6158) was added and the mixture was reacted for 2 hrs at room temperature, and washed 3 times with Wash buffer. CF488-conjugated anti-mouse Ig antibody (Biotum 20014) was added and the mixture was reacted for 2 hrs at room temperature, and washed 3 times with PBS(−). After nuclear staining with SlowFade Gold antifade reagent with DAPI manufactured by Lifetechnology, the cells were photographed with a fluorescence microscope at ×100 magnification.

[6] = tested on: Human normal skin-derived fibroblasts (HDFs); assay: Real-time RT-PCR of UCP1, CIDEA, KCNK3, Example 41; settings: ALK5 inhibitor II or LY2157299 (8 μM), Day 1 to Day 8; day 14; FIG. 45
Experimental: Human normal skin-derived fibroblasts (HDFs) were suspended in a general medium (DMEM added with 10% FBS). […] The adipocyte induction medium is DMEM added with 1 nM T3, 1 μM Rosiglitazone, 0.5 mM 3-isobutyl-1-methylxanthine (IBMX), 0.5 μM dexamethasone, 1 μg/mL Insulin and 10% FBS. Once every 2 days, the culture medium was exchanged with a fresh one, and culturing was performed from Day 1 to Day 8. Thereafter, from Day 9 to Day 14, the cells were cultured in an adipocyte induction medium free of ALK5 inhibitor II or LY2157299. On day 14, the culture medium was removed by suction from each well, washed with PBS(−) and total RNA was extracted from the cells by using RNA easy Mini Kit manufactured by Qiagen. cDNA was synthesized from the RNA by using Rever Tra Ace qPCR RT Master Mix. This cDNA was admixed with Real-time PCR Master Mix, primers specific to UCP-1 gene, CIDEA gene, KCNK3 gene or β actin gene and Taqman probe. qRT-PCR was performed using AB7300 Real-time PCR system. The mRNA level of UCP1 gene was quantified as a ratio to β-actin gene mRNA, and calculated with the value of fibroblast cultured in the general medium as 1.

[7] = tested on: human dermal fibroblasts; HDFs; assay: Real-time PCR of AdipoQ, FABP4, PPAR-γ, four inhibitors with Rosiglitazone, Example 50; settings: WA medium added with 1 μM Rosiglitazone and 16 μM compound; day 12
Source text: On day 12, RNA was recovered from the cells and, in the same manner as in Example 47, mRNA of AdipoQ, FABP4 (mature adipocyte marker), and PPAR-γ (preadipocyte marker) was quantified.

[8] = tested on: Human normal skin-derived fibroblasts (HDFs); assay: Real-time RT-PCR of UCP1, four inhibitors, Example 39
Experimental: The addition concentration of the compound was 4 μM, 8 μM, 12 μM or 16 μM. […] Thereafter, in Day 9-Day 14, culturing was performed in a medium free of ALK5 inhibitor II, LY2157299, SB431542, D4476.

SMILES	conversion of fibroblast to chondrocyte, Sox9 and Aggrican mRNA [1]	lipid droplets stained with Bodipy, inhibitor alone ([2]; WA medium added with 16 μM compound alone)	lipid droplets stained with Bodipy / conversion to white adipocyte, inhibitor and Rosiglitazone ([2]; WA medium added with 16 μM compound and 1 μM Rosiglitazone)	conversion of epidermal keratinocyte to brown adipocyte, UCP1 and CIDEA mRNA [3]	fat accumulation (BODIPY) / conversion to white adipocyte, co-addition of Rosiglitazone [4]	conversion of fibroblast to brown adipocyte, UCP1 protein ([5]; ALK5 inhibitor II 4 μM)	staining with anti-UCP1 antibody ([5]; groups 3-6: ALK5 inhibitor II 4 μM)	conversion of fibroblast to brown adipocyte, UCP1, CIDEA and KCNK3 mRNA [6]	conversion of human fibroblast to white adipocyte (mRNA markers) [7]	conversion of fibroblast to brown adipocyte, UCP1 mRNA ([8]; 4 μM, 8 μM, 12 μM or 16 μM in adipocyte induction medium Day 1 to Day 8, then compound-free to day 14, FIG. 43)	efficiency in converting fibroblast to brown adipocyte (summary statement) ([8]; description, conditions not given)
Cc1ccc(-c2cn3c4c(sc3n2)CCCC4)cc1 [Cyclic Pifithrin-α]	does not promote conversion of fibroblast to chondrocyte	–	–	–	–	–	–	–	–	–	–
Cc1cccc(-c2nn3c(c2-c2ccnc4ccc(C(N)=O)cc24)CCC3)n1 [LY2157299, 4-[5,6-dihydro-2-(6-methyl-2-pyridinyl)-4H-pyrrolo[1,2-b]pyrazol-3-yl]-6-quinolinecarboxamide]	–	only a few cells contained lipid droplets stained with Bodipy	many cells were stained	converted normal human epidermal keratinocyte to brown adipocyte expressing UCP1 gene and CIDEA gene	more strongly induced fat accumulation than by the addition of Rosiglitazone alone	converted fibroblast to brown adipocyte expressing UCP1 protein; also recorded: secondly	many cells were stained with anti-UCP1 antibody; also recorded: the second highest	converted fibroblast to brown adipocyte expressing UCP1 gene, CIDEA gene and KCNK3 gene	converted human fibroblast to white adipocyte	converted fibroblast to brown adipocyte strongly expressing UCP1 gene; also recorded: secondly	highly efficient in converting fibroblast to brown adipocyte
